Test: in vitro
Conditions: human, hela cells, % viability

| Compound | viability at 28.5 h, 10 µM [%] |
| --- | --- |
| CN(C)C(=O)c1ccc(-c2ccc3c(c2)COC(C2CCN(C(=O)CC4CCCCC4)CC2)O3)cc1 (centres unmarked) [CBK149763] | 114 |
| CC(=O)CSc1nsc(SCC(C)=O)n1 [CBK006702] | 89.6 |
| Cc1nc(-c2ccccc2)sc1CNC(=O)Cc1ccccc1F [CBK092372] | 104 |
| FC(F)(F)c1ccc2c(c1)N(CCCN1CCN(C34CC5CC(CC(C5)C3)C4)CC1)c1ccccc1S2 [CBK261938] | 102 |
| OCCN1CC2(CCN(CC3COc4ccccc4O3)CC2)c2ccccc21 (centres unmarked) [CBK143955] | 86.7 |
| O=C(CSc1nnc(-c2ccncc2)n1-c1ccccc1)c1ccc(Br)cc1 [CBK266758] | 93.9 |
| Cc1nc2ccccc2n1CC(=O)N(CCC#N)Cc1ccco1 [CBK306323] | 86.1 |
| COc1nc2ccn(CCNC(=O)C(C)C)c(=O)c2cc1C#N [CBK307015] | 95.8 |
| COc1cc(/C=C2\C=C(c3ccc(-c4ccccc4)cc3)OC2=O)ccc1O [CBK265594] | 88.5 |
| CC(C)[C@H](CO)Nc1nccnc1-c1ccc(C(=O)N2CCOCC2)cc1 [CBK037012] | 97.7 |
| Cc1cc(C)cc(C(=O)N(CCc2ccccc2)C2CC3CCC(C2)N3C)c1 (centres unmarked) [CBK262612C] | 83.7 |
| Nc1ncnc2c1nc1n2[C@H]2C[C@@H](O)[C@H](O2)[C@H]1O [CBK201183] | 96.2 |
| Cc1cc2cn([C@@H]3O[C@H](CO)[C@H](O)C3O)c(=O)nc2[nH]1 (some centres unmarked) [CBK201219] | 98 |
| O=C1c2ccccc2C(=O)N1CCc1c[nH]c2ccc(O)cc12 [CBK086794] | 76 |
| C[C@@H]1C[C@H](C)CN(C(C(=O)O)c2c[nH]c3ccccc23)C1 (some centres unmarked) [CBK286868] | 94.3 |
| O=C(c1cc(F)cc(F)c1)N1CCn2c(nnc2C2CC2)C1 [CBK283772] | 95.9 |
| NCCC(O)(P(=O)(O)O)P(=O)(O)O [CBK260913] | 97.6 |
| NC(=O)c1cccnc1N1CCNCC1 [CBK025310C] | 85.8 |

| Compound | viability at 28.5 h, 10 µM [%] |
| --- | --- |
| COc1ccc(CNC(=O)NC(=O)C2CCN(CCc3c[nH]c4ccccc34)CC2)c(OC)c1 [CBK034864] | 90 |
| CSCCCNC(=O)N(CCC#N)C1CCCCC1 [CBK156348] | 104 |
| Cc1cccc(-c2csc3c(=O)[nH]c(N4CCC(C(=O)NCCc5cccnc5)CC4)nc23)c1 [CBK215627] | 94 |
| Cc1ccc(-c2cc(C(=O)Nc3cccnc3)[nH]n2)c(O)c1C [CBK288158] | 93.3 |
| O=S(=O)(NCCn1cccc1)c1ccc2ccccc2c1 [CBK270211] | 90.4 |
| CCOc1ccccc1NC(=O)Nc1cccc(S(N)(=O)=O)c1 [CBK057282] | 91.3 |
| COCCC(=O)N1C2CCC(C2)[C@@H]1COc1ccc(F)cc1 (some centres unmarked) [CBK284604] | 96 |
| CCN(CC)CCNC(=O)c1ccc(C(=O)O)c(C)n1 [CBK304248] | 85.9 |
| O=C(c1cc(F)c(F)cc1F)N1CCC2(CCCN(C/C=C/c3ccccc3)C2)C1 (centres unmarked) [CBK132001] | 107 |
| O=C(O)CCN1C(=O)c2ccc(NC(=O)Cc3cccs3)cc2C1=O [CBK268240] | 95.9 |
| Cc1ccc(C2(O)CCN(CCNC(=O)c3cccs3)CC2)cc1 [CBK283322] | 87.8 |
| O=C(Cc1ccccn1)N1CCC(c2cccc(Cc3ccc(C(F)(F)F)cc3)n2)CC1 [CBK286224] | 101 |
| CC1CCN(S(=O)(=O)c2cccc(C(=O)N3CCC(C(=O)O)CC3)c2)CC1 [CBK266790] | 87.4 |
| Cn1cncc1CN(Cc1ccccc1)C1CC(C)(C)NC(C)(C)C1 [CBK283226] | 89.1 |
| O=C1c2ccccc2NC(c2ccc(O)cc2)N1/N=C/c1ccc(O)cc1 (centres unmarked) [CBK262985] | 84.5 |
| Cc1ccc(S(=O)(=O)CCc2noc(-c3n[nH]c4ccccc34)n2)cc1 [CBK288598] | 104 |
| FC(F)(F)c1nc2ccccc2nc1Sc1nc[nH]n1 [CBK093808] | 87.6 |
